The record followed here is patent US11339171B2, “MDM2 inhibitors” (Gan & Lee Pharmaceuticals, priority 2017, dated 2022).

This assay concerns the target T1, MDM2 (Homo sapiens, UniProt Q00987).
T1 construct: made in house
The experiment in a line: Inhibition test of MDM2-P53 (GST-MDM2, Biotin-P53, Anti-GST-Tb, SA-XL665). In kind it is binding. The note with it: for inhibitory effect on MDM2 compared with positive control compound HDM201: labels are Example numbers, the compounds with S-configuration are meant. The protocol:
Experimental purpose: To determine the inhibitory activities of the compounds of the present invention on MDM2.
The present experiment uses the following assay methods/instruments/reagents:
Buffer: 1×PBS+0.1% BSA+5 mM DTT; MDM2 Buffer: Buffer+1 mM AEBSF
GST-MDM2: The final concentration is 4 nM, and it is required to formulate a 20 nM (5×) solution. A mother liquor is diluted by 3500 folds, wherein the mother liquor is 10-fold diluted first, and then 350-fold diluted.
Anti-GST-Tb: The final concentration is 2×, and a mother liquor is diluted by 50 folds.
MIX: GST-MDM2, Biotin-P53, SA-XL665 and Anti-GST-Tb were mixed according to a ratio of 4:4:5:5.
Sample: Preparation of a sample (10 mM in DMSO) solution: a. 3 μL sample+7 μL DMSO+20 μL DMSO were formulated to give an initial concentration of 1 mM and mixed well; b. in plate 1, twelve 5-fold serial dilutions (sequentially prepared by adding 10 μL of the last sample to 40 μL DMSO) were prepared and mixed well, individually; c. plate 2 was taken, 45 μL of Buffer was added to each well, and 5 μL of dilution at each concentration was taken from plate 1 and added to the corresponding well in plate 2 (the concentration in well 1 was 100 μM), and mixed well.
1. 18 μL of MIX was added to a 384-well plate, and centrifugation was performed at 4500 rpm for 5 min.
2. 2 μL of sample was added correspondingly to each well, the resultant was centrifuged at 25° C. and 4500 rpm for 5 min, and shaked at 25° C. for 90 min on a shaker.
Readings were obtained from the Microplate reader, and data was processed by Graphpad Prism 6.0.

T1 sequence (Q00987 whole entry): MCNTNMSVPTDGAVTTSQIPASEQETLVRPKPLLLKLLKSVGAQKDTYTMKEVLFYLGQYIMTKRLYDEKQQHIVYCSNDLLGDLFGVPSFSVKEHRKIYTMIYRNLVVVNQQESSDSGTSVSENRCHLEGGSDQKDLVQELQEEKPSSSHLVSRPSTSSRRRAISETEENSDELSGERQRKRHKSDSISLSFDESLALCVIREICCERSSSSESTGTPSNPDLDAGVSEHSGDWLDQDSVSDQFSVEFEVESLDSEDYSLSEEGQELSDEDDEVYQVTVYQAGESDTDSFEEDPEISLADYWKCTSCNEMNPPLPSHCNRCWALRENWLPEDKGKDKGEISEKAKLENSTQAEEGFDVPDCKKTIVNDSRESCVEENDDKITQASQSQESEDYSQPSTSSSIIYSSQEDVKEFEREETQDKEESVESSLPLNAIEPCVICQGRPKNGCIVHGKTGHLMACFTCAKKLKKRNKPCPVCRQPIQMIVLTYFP

A word on the IC50: it is the midpoint of a concentration-inhibition curve. Lower therefore signals greater potency. Take `CCOc1ccc(-c2nc3c(n2C(C)C)[C@]2(C(=O)Nc4cc(Cl)ccc42)N(c2cccc(Cl)c2)C3=O)c(OC)c1` [Example R-100, (R)-6-chloro-5′-(3-chlorophenyl)-2′-(4-ethoxy-2-methoxyphenyl)-3′-isopropyl-3′H-spiro[dihydroindole-3,4′-pyrrolo[3,4-d]imidazole]-2,6′(5′H)-dione]: the IC50 is 633 nM.

With `COc1cc(C(C)C)ncc1-c1nc2c(n1C(C)C)[C@]1(C(=O)Nc3cc(Cl)ccc31)N(c1cc(Cl)ccc1C)C2=O` [Example R-164, (R)-6-chloro-5′-(5-chloro-2-methylphenyl)-3′-isopropyl-2′-(6-isopropyl-4-methoxypyridin-3-yl)-3′H-spiro[dihydroindole-3,4′-pyrrolo[3,4-d]imidazole]-2,6′(5′H)-dione], the IC50 was found to be 592 nM. Regarding `COc1cccc(OC)c1-c1nc2c(n1C(C)C)C1(C(=O)Nc3cc(Cl)ccc31)N(c1cc(Cl)ccc1C)C2=O` (stereo not drawn) [Example 79, 6-chloro-5′-(5-chloro-2-methylphenyl)-2′-(2,6-dimethoxyphenyl)-3′-isopropyl-3′H-spiro[dihydroindole-3,4′-pyrrolo[3,4-d]imidazole]-2,6′(5′H)-dione], the “inhibitory effect on MDM2 compared with positive control compound HDM201” value is “better”. Regarding `COc1ccccc1-c1nc2c(n1C(C)C)[C@]1(C(=O)Nc3cc(Cl)ccc31)N(c1cc(Cl)cn(C)c1=O)C2=O` [Example R-43, (R)-6-chloro-5′-(5-chloro-1-methyl-2-oxo-1,2-dihydropyridin-3-yl)-3′-isopropyl-2′-(2-methoxyphenyl)-3′H-spiro[dihydroindole-3,4′-pyrrolo[3,4-d]imidazole]-2,6′(5′H)-dione], the IC50 was 130 nM.

`COc1cc(OC)c(-c2nc3c(n2C(C)C)[C@]2(C(=O)Nc4cc(Cl)ccc42)N(c2cc(Cl)ccc2F)C3=O)cn1` [Example R-133, (R)-6-chloro-5′-(5-chloro-2-fluorophenyl)-2′-(4,6-dimethoxypyridin-3-yl)-3′-isopropyl-3′H-spiro[dihydroindole-3,4′-pyrrolo[3,4-d]imidazole]-2,6′(5′H)-dione] displayed an IC50 of 1110 nM. The same measure, in the same setting: the value for `CCOc1ccc(-c2nc3c(n2C(C)C)[C@]2(C(=O)Nc4cc(Cl)ccc42)N(c2cc(Cl)ccc2C)C3=O)c(OC)n1` [Example R-146, (R)-6-chloro-5′-(5-chloro-2-methylphenyl)-2′-(6-ethoxy-2-methoxypyridin-3-yl)-3′-isopropyl-3′H-spiro[dihydroindole-3,4′-pyrrolo[3,4-d]imidazole]-2,6′(5′H)-dione] was 6710 nM; that for `CCc1ccc(OC)c(-c2nc3c(n2C(C)C)[C@]2(C(=O)Nc4cc(Cl)ccc42)N(c2cccc(Cl)c2)C3=O)c1` [Example R-38, (R)-6-chloro-5′-(3-chlorophenyl)-2′-(5-ethyl-2-methoxyphenyl)-3′-isopropyl-3′H-spiro[dihydroindole-3,4′-pyrrolo[3,4-d]imidazole]-2,6′(5′H)-dione] was 1120 nM. For `COc1cc(C(F)(F)F)ncc1-c1nc2c(n1C(C)C)C1(C(=O)Nc3cc(Cl)ccc31)N(c1cccc(Cl)c1)C2=O` (stereo not drawn) [Example 142, 6-chloro-5′-(3-chlorophenyl)-3′-isopropyl-2′-(4-methoxy-6-(trifluoromethyl)pyridin-3-yl)-3′H-spiro[dihydroindole-3,4′-pyrrolo[3,4-d]imidazole]-2,6′(5′H)-dione], the “inhibitory effect on MDM2 compared with positive control compound HDM201” value was “better”. As to `COc1cc(OCCF)ncc1-c1nc2c(n1C(C)C)C1(C(=O)Nc3cc(Cl)ccc31)N(c1cc(Cl)ccc1C)C2=O` (stereo not drawn) [Example 163, 6-chloro-5′-(5-chloro-2-methylphenyl)-2′-(6-(2-fluoroethoxy)-4-methoxypyridin-3-yl)-3′-isopropyl-3′H-spiro[dihydroindole-3,4′-pyrrolo[3,4-d]imidazole]-2,6′(5′H)-dione], the “inhibitory effect on MDM2 compared with positive control compound HDM201” value is “better”. In turn, `COc1cc(C(F)(F)F)ccc1-c1nc2c(n1C(C)C)[C@]1(C(=O)Nc3cc(Cl)ccc31)N(c1cccc(Cl)c1)C2=O` [Example R-129, (R)-6-chloro-5′-(3-chlorophenyl)-3′-isopropyl-2′-(2-methoxy-4-(trifluoromethyl)phenyl)-3′H-spiro[dihydroindole-3,4′-pyrrolo[3,4-d]imidazole]-2,6′(5′H)-dione] registered a half-inhibitory concentration (IC50) of 149 nM. The same measure, in the same setting: the value for `COc1ccc(N2C(=O)c3nc(-c4ccccc4OC)n(C(C)C)c3[C@]23C(=O)Nc2cc(Cl)ccc23)cc1Cl` [Example R-63, (R)-6-chloro-5′-(3-chloro-4-methoxyphenyl)-3′-isopropyl-2′-(2-methoxyphenyl)-3′H-spiro[dihydroindole-3,4′-pyrrolo[3,4-d]imidazole]-2,6′(5′H)-dione] was 537 nM; that for `COc1cc(F)c(-c2nc3c(n2C(C)C)[C@@]2(C(=O)Nc4cc(Cl)ccc42)N(c2cc(Cl)ccc2C)C3=O)c(OC)c1` [Example S-130, (S)-6-chloro-5′-(5-chloro-2-methylphenyl)-2′-(2-fluoro-4,6-dimethoxyphenyl)-3′-isopropyl-3′H-spiro[dihydroindole-3,4′-pyrrolo[3,4-d]imidazole]-2,6′(5′H)-dione] was 5.59 nM; that for `CCOc1cc(OC)c(-c2nc3c(n2C(C)C)[C@]2(C(=O)Nc4cc(Cl)ccc42)N(c2cccc(Cl)c2)C3=O)cn1` [Example R-102, (R)-6-chloro-5′-(3-chlorophenyl)-2′-(6-ethoxy-4-methoxypyridin-3-yl)-3′-isopropyl-3′H-spiro[dihydroindole-3,4′-pyrrolo[3,4-d]imidazole]-2,6′(5′H)-dione] was 413 nM. Same read-out and setting: the value for `COc1c(F)cccc1-c1nc2c(n1C(C)C)[C@]1(C(=O)Nc3cc(Cl)ccc31)N(c1cc(Cl)ccc1C)C2=O` [Example R-76, (R)-6-chloro-5′-(5-chloro-2-methylphenyl)-2′-(3-fluoro-2-methoxyphenyl)-3′-isopropyl-3′H-spiro[dihydroindole-3,4′-pyrrolo[3,4-d]imidazole]-2,6′(5′H)-dione] was 579 nM. As to `COc1cc(N(C)C)ccc1-c1nc2c(n1C(C)C)C1(C(=O)Nc3cc(Cl)ccc31)N(c1cc(Cl)ccc1F)C2=O` (stereo not drawn) [Example 81, 6-chloro-5′-(5-chloro-2-fluorophenyl)-2′-(4-(dimethylamino)-2-methoxyphenyl)-3′-isopropyl-3′H-spiro[dihydroindole-3,4′-pyrrolo[3,4-d]imidazole]-2,6′(5′H)-dione], the “inhibitory effect on MDM2 compared with positive control compound HDM201” value was “better”. In the case of `COc1cc(OC)c(-c2nc3c(n2C(C)C)[C@]2(C(=O)Nc4cc(Cl)ccc42)N(c2cc(F)cc(Cl)c2)C3=O)cn1` [Example R-175, (R)-6-chloro-5′-(3-chloro-5-fluorophenyl)-2′-(4,6-dimethoxypyridin-3-yl)-3′-isopropyl-3′H-spiro[dihydroindole-3,4′-pyrrolo[3,4-d]imidazole]-2,6′(5′H)-dione], the 50% inhibitory concentration (IC50) came to 522 nM. Still for that read-out and setting: the value for `COc1nc(C(C)C)ccc1-c1nc2c(n1C(C)C)[C@]1(C(=O)Nc3cc(Cl)ccc31)N(c1cc(Cl)ccc1C)C2=O` [Example R-149, (R)-6-chloro-5′-(5-chloro-2-methylphenyl)-3′-isopropyl-2′-(6-isopropyl-2-methoxypyridin-3-yl)-3′H-spiro[dihydroindole-3,4′-pyrrolo[3,4-d]imidazole]-2,6′(5′H)-dione] was 2280 nM; that for `COc1ncc(-c2nc3c(n2C(C)C)[C@]2(C(=O)Nc4cc(Cl)ccc42)N(c2ccc(C#N)c(Cl)c2)C3=O)c(OC)n1` [Example R-158, (R)-2-chloro-4-(6-chloro-2′-(2,4-dimethoxypyrimidin-5-yl)-3′-isopropyl-2,6′-dioxo-3′,6′-dihydro-5′H-spiro[dihydroindole-3,4′-pyrrolo[3,4-d]imidazole]-5′-yl)benzonitrile] was 2200 nM; that for `COc1cc(N)ccc1-c1nc2c(n1C(C)C)[C@]1(C(=O)Nc3cc(Cl)ccc31)N(c1ccc(F)c(Cl)c1)C2=O` [Example R-73, (R)-2′-(4-amino-2-methoxyphenyl)-6-chloro-5′-(3-chloro-4-fluorophenyl)-3′-isopropyl-3′H-spiro[dihydroindole-3,4′-pyrrolo[3,4-d]imidazole]-2,6′(5′H)-dione] was 142 nM.

As for `COc1ccc(-c2nc3c(n2C(C)C)[C@]2(C(=O)Nc4cc(Cl)ccc42)N(c2cc(Cl)ccc2F)C3=O)c(OC)c1` [Example R-80, (R)-6-chloro-5′-(5-chloro-2-fluorophenyl)-2′-(2,4-dimethoxyphenyl)-3′-isopropyl-3′H-spiro[dihydroindole-3,4′-pyrrolo[3,4-d]imidazole]-2,6′(5′H)-dione], the IC50 came out at 363 nM. Still for that read-out and setting: the value for `COc1cc(OCCO)ccc1-c1nc2c(n1C(C)C)[C@]1(C(=O)Nc3cc(Cl)ccc31)N(c1cc(Cl)ccc1C)C2=O` [Example R-148, (R)-6-chloro-5′-(5-chloro-2-methylphenyl)-2′-(4-(2-hydroxyethoxy)-2-methoxyphenyl)-3′-isopropyl-3′H-spiro[dihydroindole-3,4′-pyrrolo[3,4-d]imidazole]-2,6′(5′H)-dione] was 201 nM.
